Among the data in ChEMBL document CHEMBL1909046, “DrugMatrix in vitro pharmacology data” are IC50 and Ki values, retold here.

For one data set, the target named is T1, Caspase-1 (Homo sapiens, UniProt P29466).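 Note: Caspase-1 enzyme inhibition assay with a peptide substrate.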
T1 sequence (P29466 whole entry): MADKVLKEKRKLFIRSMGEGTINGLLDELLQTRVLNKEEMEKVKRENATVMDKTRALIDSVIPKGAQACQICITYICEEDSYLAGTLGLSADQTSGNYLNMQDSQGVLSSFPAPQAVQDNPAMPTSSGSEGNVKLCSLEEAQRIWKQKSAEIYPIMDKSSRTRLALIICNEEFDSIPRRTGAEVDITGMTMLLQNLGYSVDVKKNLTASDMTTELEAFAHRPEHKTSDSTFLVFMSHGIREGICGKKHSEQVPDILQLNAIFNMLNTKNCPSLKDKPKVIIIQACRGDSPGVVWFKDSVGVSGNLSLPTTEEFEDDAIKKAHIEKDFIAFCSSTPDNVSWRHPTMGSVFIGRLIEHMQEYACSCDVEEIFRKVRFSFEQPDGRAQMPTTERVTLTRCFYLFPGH
Details: species or system Escherichia coli.

Another data set concerns the target T2, Thromboxane-A synthase (Homo sapiens, UniProt P24557).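 Note: enzyme inhibition assay with PGH2 supplied as substrate.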
T2 sequence (P24557 whole entry): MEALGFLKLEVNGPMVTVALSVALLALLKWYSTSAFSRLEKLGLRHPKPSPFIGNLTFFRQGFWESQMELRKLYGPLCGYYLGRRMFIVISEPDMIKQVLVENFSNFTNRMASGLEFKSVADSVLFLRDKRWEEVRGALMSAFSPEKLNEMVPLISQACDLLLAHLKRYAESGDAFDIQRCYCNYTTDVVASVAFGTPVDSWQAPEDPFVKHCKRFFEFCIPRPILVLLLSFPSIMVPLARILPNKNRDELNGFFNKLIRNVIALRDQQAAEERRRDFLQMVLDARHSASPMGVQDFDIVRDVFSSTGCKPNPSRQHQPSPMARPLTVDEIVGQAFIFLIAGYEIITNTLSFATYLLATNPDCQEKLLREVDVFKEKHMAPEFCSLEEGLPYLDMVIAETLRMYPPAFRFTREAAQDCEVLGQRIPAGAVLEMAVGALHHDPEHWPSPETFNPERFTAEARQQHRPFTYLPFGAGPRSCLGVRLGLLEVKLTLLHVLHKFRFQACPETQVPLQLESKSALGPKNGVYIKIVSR
Kind of data set: biochemical. The following applies: platelet. Type of data set: tissue-based, Platelet.

The target in the next data set is Cytochrome P450 2E1 (Homo sapiens, UniProt P05181). The following applies: bti-tn-5b1-4.
Sequence of Cytochrome P450 2E1 (P05181 whole entry): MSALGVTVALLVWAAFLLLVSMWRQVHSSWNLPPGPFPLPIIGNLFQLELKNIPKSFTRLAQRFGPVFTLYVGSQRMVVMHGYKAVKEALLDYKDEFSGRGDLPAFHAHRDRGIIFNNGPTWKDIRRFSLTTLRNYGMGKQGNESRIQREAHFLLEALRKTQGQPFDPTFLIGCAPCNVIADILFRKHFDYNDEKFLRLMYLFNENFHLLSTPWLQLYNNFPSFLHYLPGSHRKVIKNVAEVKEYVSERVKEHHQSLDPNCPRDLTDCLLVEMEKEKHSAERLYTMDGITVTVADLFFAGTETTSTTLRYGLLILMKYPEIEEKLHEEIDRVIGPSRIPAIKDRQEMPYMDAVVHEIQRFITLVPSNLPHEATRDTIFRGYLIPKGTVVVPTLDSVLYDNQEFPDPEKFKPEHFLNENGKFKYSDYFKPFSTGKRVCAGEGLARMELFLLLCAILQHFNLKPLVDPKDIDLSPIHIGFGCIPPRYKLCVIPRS
A further data set has as its target Melanocortin receptor 5 (Homo sapiens, UniProt P33032). Type of data set: cell membranes, HEK293, Membrane. The following applies: hek293.
Data set [1] concerns the target T3, C-X-C chemokine receptor type 1 (Homo sapiens, UniProt P25024).
T3 sequence (P25024 whole entry): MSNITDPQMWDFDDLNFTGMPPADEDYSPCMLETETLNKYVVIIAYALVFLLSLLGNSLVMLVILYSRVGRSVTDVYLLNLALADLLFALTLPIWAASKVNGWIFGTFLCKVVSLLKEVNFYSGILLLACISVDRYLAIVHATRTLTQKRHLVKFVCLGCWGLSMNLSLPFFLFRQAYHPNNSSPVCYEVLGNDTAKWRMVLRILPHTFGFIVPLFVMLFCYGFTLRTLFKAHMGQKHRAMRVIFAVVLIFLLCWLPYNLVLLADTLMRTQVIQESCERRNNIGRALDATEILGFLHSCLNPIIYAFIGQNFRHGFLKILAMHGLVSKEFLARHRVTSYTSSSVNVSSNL

A further data set deals with T4, Adenosine receptor A3 (Homo sapiens, UniProt P0DMS8).
T4 sequence (P0DMS8 whole entry): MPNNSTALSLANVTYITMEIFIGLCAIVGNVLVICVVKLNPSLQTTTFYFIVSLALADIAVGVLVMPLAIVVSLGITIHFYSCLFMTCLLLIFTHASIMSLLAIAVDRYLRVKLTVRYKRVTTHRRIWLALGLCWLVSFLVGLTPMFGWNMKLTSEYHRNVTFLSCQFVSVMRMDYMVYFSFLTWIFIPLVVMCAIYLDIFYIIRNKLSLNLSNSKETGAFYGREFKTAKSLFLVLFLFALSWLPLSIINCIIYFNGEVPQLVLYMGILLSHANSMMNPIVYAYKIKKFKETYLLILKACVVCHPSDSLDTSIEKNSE
Type of data set: cell membranes, CHO-K1, Membrane. Particulars: cho-k1.
Note: in other assays of this panel Not Active means under 50% inhibition at 10 µM.

Sequence of Melanocortin receptor 5 (P33032 whole entry): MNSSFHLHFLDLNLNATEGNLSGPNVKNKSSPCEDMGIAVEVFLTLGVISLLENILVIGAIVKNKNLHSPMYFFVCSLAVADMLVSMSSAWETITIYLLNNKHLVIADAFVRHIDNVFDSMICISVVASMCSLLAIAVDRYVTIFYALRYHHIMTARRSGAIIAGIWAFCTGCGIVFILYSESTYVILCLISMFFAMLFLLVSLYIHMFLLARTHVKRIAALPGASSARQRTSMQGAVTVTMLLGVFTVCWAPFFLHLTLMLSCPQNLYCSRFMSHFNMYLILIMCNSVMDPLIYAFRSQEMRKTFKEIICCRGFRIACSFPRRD

As for `O=c1[nH]c(=O)n(C2CCCO2)cc1F` (centres undefined) [TEGAFUR], the IC50 entry (at Caspase-1; on Thromboxane-A synthase; against Cytochrome P450 2E1; against Melanocortin receptor 5; in data set [1]; at Adenosine receptor A3) was “Not Active” in each case. Moreover, the Ki entry on Cytochrome P450 2E1 is given as “Not Active”.

In the case of `CC(=N)S` [THIOACETAMIDE], the IC50 result (against Caspase-1; against Thromboxane-A synthase; against Cytochrome P450 2E1; at Melanocortin receptor 5; in data set [1]; on Adenosine receptor A3) was “Not Active” throughout. On Cytochrome P450 2E1, the Ki result is listed as “Not Active”.

Take `Cc1ccc(C(=O)c2ccc(CC(=O)O)n2C)cc1` [TOLMETIN]: the half-maximal inhibitory concentration (IC50) result (on Caspase-1; against Thromboxane-A synthase; at Cytochrome P450 2E1; against Melanocortin receptor 5; in data set [1]; against Adenosine receptor A3) was “Not Active” in each case. The Ki entry at Cytochrome P450 2E1 is on record as “Not Active”.

Regarding `CC(=O)OCC(COC(C)=O)OC(C)=O` [TRIACETIN], the IC50 entry (at Caspase-1; against Thromboxane-A synthase; on Cytochrome P450 2E1; on Melanocortin receptor 5; in data set [1]; against Adenosine receptor A3) was “Not Active” in each case. The Ki entry on Cytochrome P450 2E1 is reported as “Not Active”.

Turning to `CN1CCN(CCCN2c3ccccc3Sc3ccc(C(F)(F)F)cc32)CC1` [TRIFLUOPERAZINE], the half-inhibitory concentration (IC50) entry (against Caspase-1; on Thromboxane-A synthase; against Cytochrome P450 2E1; against Melanocortin receptor 5; in data set [1]; against Adenosine receptor A3) was “Not Active” each time. The Ki entry on Cytochrome P450 2E1 is “Not Active”.

Consider TRANSPLATIN, for which the IC50 result is “Not Active” on Caspase-1; “Not Active” against Thromboxane-A synthase; “Not Active” against Cytochrome P450 2E1; “Not Active” on Melanocortin receptor 5; “Not Active” in data set [1]; 989 nM at Adenosine receptor A3 (read-out: IC50). The inhibitory constant (Ki) entry at Caspase-1 is “Not Active”; on Thromboxane-A synthase, “Not Active”; on Cytochrome P450 2E1, “Not Active”; on Melanocortin receptor 5, “Not Active”; in data set [1], “Not Active”; at Adenosine receptor A3 (read-out: Ki), 559 nM.

Take ZIRCONIUM(IV) CHLORIDE: the IC50 result (on Caspase-1; at Thromboxane-A synthase; at Cytochrome P450 2E1; against Melanocortin receptor 5; in data set [1]; against Adenosine receptor A3) was “Not Active” in each case. Moreover, the Ki entry (at Caspase-1; on Thromboxane-A synthase; on Cytochrome P450 2E1; on Melanocortin receptor 5; in data set [1]; on Adenosine receptor A3) was “Not Active” each time.
